Reference: ChEMBL document CHEMBL1157759, “Discovery of GS-9131: Design, synthesis and optimization of amidate prodrugs of the novel nucleoside phosphonate HIV reverse transcriptase (RT) inhibitor GS-9148” (Bioorg Med Chem, 2010)

Key:
[1] = test system: Human immunodeficiency virus 1; assay: Antiviral activity against HIV1 3B infected in human MT2 cells assessed as inhibition of virus-induced cytopathic effect after 5 days by XTT assay; assay type: functional, organism-based
[2] = Hydrolytic stability assessed as compound degradation per ug of protein at 10 uM after 90 mins by scintillation counting in presence of human recombinant cathepsin A; conditions: 1.5 h
PBMC = assay: Metabolic stability in cathepsin A-overexpressing human PBMC assessed as compound degradation per ug of protein at 10 uM after 120 mins by scintillation counting; conditions: 2 h, 30 µM
[3] = Half life in dog hepatocytes at 2 uM by LC/MS/MS analysis
[4] = Cytotoxicity against human MT2 cells after 5 days by XTT assay
[5] = Half life in human hepatocytes at 2 uM by LC/MS/MS analysis
[6] = Metabolic stability in dog plasma assessed as compound remaining after 60 mins
Homo sapiens = organism: Homo sapiens; assay: in vitro; conditions: plasma
[7] = Half life in dog intestine S9 fraction at 2 uM by LC/MS/MS analysis; conditions: intestine S9 fraction, t1/2
[8] = Human immunodeficiency virus 1, 3B, MT2, 120 h

Structure (SMILES) | EC50 [1, 8] | Activity [2] | Activity (PBMC) | CC50 at 120 h [4] | further results
CCOC(=O)[C@H](Cc1ccccc1)NP(=O)(CO[C@@H]1C=C(F)[C@H](n2cnc3c(N)ncnc32)O1)N[C@@H](Cc1ccccc1)C(=O)OCC | 8.9 nM | 41020 pmol/min | 40 pmol/min |  | 
CC(C)COC(=O)[C@H](C)NP(=O)(CO[C@@H]1C=C(F)[C@H](n2cnc3c(N)ncnc32)O1)N[C@@H](C)C(=O)OCC(C)C | 119 nM | 1770 pmol/min | 2.1 pmol/min | > 100 µM | half-life at 2 µM [3]: 193 min
CCOC(=O)[C@H](C)NP(=O)(CO[C@@H]1C=C(F)[C@H](n2cnc3c(N)ncnc32)O1)OCC(F)(F)F (stereo partly drawn) | 1050 nM | 1132 pmol/min | 0.69 pmol/min | > 100 µM | half-life at 2 µM [3]: 86 min; half-life at 2 µM [5]: 185 min
CCCCOC(=O)[C@H](C)NP(=O)(CO[C@@H]1C=C(F)[C@H](n2cnc3c(N)ncnc32)O1)Oc1ccccc1 (stereo partly drawn) | 92 nM | 6183 pmol/min | 7.3 pmol/min | 91 µM | half-life at 2 µM ([3]; t1/2): 63 min
CCCOC(=O)[C@H](Cc1ccccc1)NP(=O)(CO[C@@H]1C=C(F)[C@H](n2cnc3c(N)ncnc32)O1)Oc1ccccc1 (stereo partly drawn) | 4.9 nM |  |  |  | 
C[C@H](NP(=O)(CO[C@@H]1C=C(F)[C@H](n2cnc3c(N)ncnc32)O1)Oc1ccccc1)C(=O)OCC1CCC1 (stereo partly drawn) | 25 nM |  |  |  | 
CC(C)COC(=O)CNP(=O)(CO[C@@H]1C=C(F)[C@H](n2cnc3c(N)ncnc32)O1)NCC(=O)OCC(C)C | 1610 nM | 0 pmol/min | 0 pmol/min | > 100 µM | 
CC(C)COC(=O)[C@H](C)NP(=O)(CO[C@@H]1C=C(F)[C@H](n2cnc3c(N)ncnc32)O1)Oc1ccccc1 (stereo partly drawn) | 58 nM |  |  |  | 
C[C@H](NP(=O)(CO[C@@H]1C=C(F)[C@H](n2cnc3c(N)ncnc32)O1)Oc1ccccc1)C(=O)OCC1CC1 (stereo partly drawn) | 59 nM |  |  |  | 
CCCCOC(=O)[C@H](Cc1ccccc1)NP(=O)(CO[C@@H]1C=C(F)[C@H](n2cnc3c(N)ncnc32)O1)N[C@@H](Cc1ccccc1)C(=O)OCCCC | 8.4 nM | 66680 pmol/min | 50 pmol/min | 4.8 µM | half-life at 2 µM [3]: 10 min
Nc1ncnc2c1ncn2[C@@H]1O[C@H](OCP(=O)(N[C@@H](Cc2ccccc2)C(=O)OC2CCC2)Oc2ccccc2)C=C1F (stereo partly drawn) | 20 nM |  |  |  | 
CC(C)OC(=O)[C@H](C)NP(=O)(CO[C@@H]1C=C(F)[C@H](n2cnc3c(N)ncnc32)O1)Oc1ccccc1 (stereo in doubt; 18s) [(2S)-ISOPROPYL 2-(((2R,5R)-5-(6-AMINO-9H-PURIN-9-YL)-4-FLUORO-2,5-DIHYDROFURAN-2-YLOXY)(PHENOXY)PHOSPHORYLAMINO)PROPANOATE (ENANTIOMERIC MIX)] |  | 216 pmol/min | 0.3 pmol/min |  | half-life at 2 µM ([3]; t1/2): 88 min; EC50 ([1]; mt2): 728 nM
CCCOC(=O)[C@H](Cc1ccccc1)NP(=O)(CO[C@@H]1C=C(F)[C@H](n2cnc3c(N)ncnc32)O1)N[C@@H](Cc1ccccc1)C(=O)OCCC | 5.2 nM | 27642 pmol/min | 20 pmol/min |  | 
CC[C@H](NP(=O)(CO[C@@H]1C=C(F)[C@H](n2cnc3c(N)ncnc32)O1)N[C@@H](CC)C(=O)OCC(C)C)C(=O)OCC(C)C | 128 nM | 867 pmol/min | 1.3 pmol/min |  | half-life at 2 µM [3]: 71 min
CCOC(=O)[C@H](C)OP(=O)(CO[C@@H]1C=C(F)[C@H](n2cnc3c(N)ncnc32)O1)Oc1ccccc1 (stereo partly drawn) | 2000 nM |  |  |  | 
CC[C@H](NP(=O)(CO[C@@H]1C=C(F)[C@H](n2cnc3c(N)ncnc32)O1)Oc1ccccc1)C(=O)OCC(C)C (stereo partly drawn) | 103 nM | 728 pmol/min | 1.9 pmol/min | > 100 µM | half-life at 2 µM ([3]; t1/2): 127 min
CC(C)COC(=O)[C@H](Cc1ccccc1)NP(=O)(CO[C@@H]1C=C(F)[C@H](n2cnc3c(N)ncnc32)O1)OCC(F)(F)F (stereo partly drawn) | 119 nM | 30107 pmol/min | 22 pmol/min | > 100 µM | half-life at 2 µM [3]: 27 min

Structure (SMILES) | EC50 [1, 8] | Activity [2] | Activity (PBMC) | CC50 at 120 h [4] | further results
CCCCSC(=O)[C@@H](Cc1ccccc1)NP(=O)(CO[C@@H]1C=C(F)[C@H](n2cnc3c(N)ncnc32)O1)Oc1ccccc1 (stereo partly drawn) | 141 nM | 1510 pmol/min | 2.1 pmol/min | > 100 µM | half-life at 2 µM ([3]; t1/2): 56 min
CC(C)COC(=O)CNP(=O)(CO[C@@H]1C=C(F)[C@H](n2cnc3c(N)ncnc32)O1)Oc1ccccc1 (stereo partly drawn) | 1120 nM | 226 pmol/min | 0.72 pmol/min | 22 µM | 
CCC(CC)OC(=O)[C@H](C)NP(=O)(CO[C@@H]1C=C(F)[C@H](n2cnc3c(N)ncnc32)O1)Oc1ccccc1 (stereo partly drawn) | 662 nM | 0 pmol/min | 0 pmol/min | 8.35 µM | 
CC[C@H](NP(=O)(CO[C@@H]1C=C(F)[C@H](n2cnc3c(N)ncnc32)O1)N[C@@H](CC)C(=O)OC(C)C)C(=O)OC(C)C | > 2000 nM | 0 pmol/min | 0.05 pmol/min |  | half-life at 2 µM [3]: 690 min; remaining at 1 h [6]: 100%; remaining at 1 h (Homo sapiens): 100%
CCCOC(=O)[C@H](C)NP(=O)(CO[C@@H]1C=C(F)[C@H](n2cnc3c(N)ncnc32)O1)Oc1ccccc1 (stereo partly drawn) | 52 nM | 19103 pmol/min | 26 pmol/min | 31 µM | half-life at 2 µM ([3]; t1/2): 88 min
CC(C)OC(=O)[C@H](Cc1ccccc1)NP(=O)(CO[C@@H]1C=C(F)[C@H](n2cnc3c(N)ncnc32)O1)Oc1ccccc1 (stereo partly drawn) | 63 nM |  |  |  | 
CCOC(=O)[C@H](C)NP(=O)(CO[C@@H]1C=C(F)[C@H](n2cnc3c(N)ncnc32)O1)Oc1ccccc1 (stereo partly drawn) [listing 1 of 2 here] |  |  |  |  | EC50 ([1]; mt2): 157 nM
C[C@H](NP(=O)(CO[C@@H]1C=C(F)[C@H](n2cnc3c(N)ncnc32)O1)Oc1ccccc1)C(=O)OC1CCCC1 (stereo partly drawn) | 63 nM | 5688 pmol/min | 3 pmol/min | > 100 µM | 
Nc1ncnc2c1ncn2[C@@H]1O[C@H](OCP(=O)(N[C@@H](Cc2ccccc2)C(=O)OCC2CC2)Oc2ccccc2)C=C1F (stereo partly drawn) | 7.5 nM | 39270 pmol/min | 41 pmol/min | > 100 µM | half-life at 2 µM ([3]; t1/2): 17 min; half-life at 2 µM ([5]; t1/2): 40 min
CCOC(=O)[C@H](C)NP(=O)(CO[C@@H]1C=C(F)[C@H](n2cnc3c(N)ncnc32)O1)Oc1ccccc1 (stereo partly drawn) [listing 2 of 2 here] |  |  |  |  | EC50 ([1]; mt2): 262 nM
CCCCOC(=O)[C@H](CC)NP(=O)(CO[C@@H]1C=C(F)[C@H](n2cnc3c(N)ncnc32)O1)Oc1ccccc1 (stereo partly drawn) | 88 nM | 1377 pmol/min | 1.4 pmol/min | 70 µM | half-life at 2 µM ([3]; t1/2): 91 min
CCCOC(=O)[C@H](C)NP(=O)(CO[C@@H]1C=C(F)[C@H](n2cnc3c(N)ncnc32)O1)N[C@@H](C)C(=O)OCCC | 1060 nM |  |  |  | 
Nc1ncnc2c1ncn2[C@@H]1O[C@H](OCP(=O)(N[C@@H](Cc2ccccc2)C(=O)OCC2CCC2)Oc2ccccc2)C=C1F (stereo partly drawn) | 3.8 nM | 37017 pmol/min | 24 pmol/min | 46.5 µM | half-life at 2 µM ([3]; t1/2): 23 min; half-life at 2 µM [7]: 3.4 min; half-life at 2 µM ([5]; t1/2): 62 min
CCOC(=O)[C@H](C)NP(=O)(CO[C@@H]1C=C(F)[C@H](n2cnc3c(N)ncnc32)O1)Oc1ccccc1 (stereo partly drawn) [(2S)-ETHYL 2-((((2R,5R)-5-(6-AMINO-9H-PURIN-9-YL)-4-FLUORO-2,5-DIHYDROFURAN-2-YLOXY)METHYL)(PHENOXY)PHOSPHORYLAMINO)PROPANOATE (ENANTIOMERIC MIX)] |  |  |  |  | EC50 ([1]; mt2): 96 nM
CC(C)OC(=O)CNP(=O)(CO[C@@H]1C=C(F)[C@H](n2cnc3c(N)ncnc32)O1)NCC(=O)OC(C)C | > 2000 nM |  |  |  | 
CCCCCOC(=O)[C@H](C)NP(=O)(CO[C@@H]1C=C(F)[C@H](n2cnc3c(N)ncnc32)O1)Oc1ccccc1 (stereo partly drawn) | 33 nM | 5088 pmol/min | 6.7 pmol/min | 27 µM | half-life at 2 µM ([3]; t1/2): 57 min
CCOC(=O)[C@H](C)NP(=O)(CO[C@@H]1C=C(F)[C@H](n2cnc3c(N)ncnc32)O1)N[C@@H](C)C(=O)OCC | 723 nM |  |  |  | 
